Structures can show the parent of a compound that is named as a salt.
Experiments:
[1] = after twelve months; US 6,441,168 (Example 1); 525600 min; cited from earlier work
[2] = Stability of the powder in sealed aluminium foil bag, purity and titre by HPLC after 6 and 12 months; type: physicochemical; details: airtight container, protected from light; for Starting values Purity / Starting values Titre: start
Experimental: The stability of the compounds listed in the following table, under powder form and in sealed aluminium foil bag, was tested, keeping the samples in airtight container, protected from light and measuring the purity and the titre thereof after 6 and 12 months.
In particular, the stability of the acid moiety was observed by HPLC, detecting the purity and titre thereof.

[3] = general knowledge stated in the introduction; cited from earlier work

Compound	After 6 months Purity [2]	After 6 months Titre [2]	After 12 months Purity [2]	After 12 months Titre [2]	Starting values Purity [2]	Starting values Titre [2]	titre decrease [1]	solubility in water (in words) [3]
CN1c2c(nc(N)[nH]c2=O)NCC1CNc1ccc(C(=O)NC(CCC(=O)O)C(=O)O)cc1 [5-methyl-(6S)-tetrahydrofolic acid calcium salts]	–	–	–	–	–	–	about 1%	–
Nc1nc2ncc(CNc3ccc(C(=O)N[C@@H](CCC(=O)O)C(=O)O)cc3)nc2c(=O)[nH]1 [D-GAL folate, D-galactosamine L-folate]	99.1	54.5	98.7	54.2	99.2	54.8	–	–
Nc1nc2ncc(CNc3ccc(C(=O)N[C@@H](CCC(=O)O)C(=O)O)cc3)nc2c(=O)[nH]1 [Folic acid, N-[4-[[(2-amino-1,4-dihydro-4-oxo-6-pteridinyl)methyl]amino]benzoyl]-L-glutamic acid]	–	–	–	–	–	–	–	very slightly soluble in water

Now from value to compound, other results behind:

After 6 months Purity [2]	After 6 months Titre [2]	After 12 months Purity [2]	After 12 months Titre [2]	Starting values Purity [2]	Starting values Titre [2]	Compound	titre decrease [1]	solubility in water (in words) [3]
98.9	55.2	98.7	55.3	99.1	55.5	CN1c2c(nc(N)[nH]c2=O)NCC1CNc1ccc(C(=O)N[C@@H](CCC(=O)O)C(=O)O)cc1 (stereo partly drawn) [D-GAL (6R,S)-5-MTHF, D-galactosamine 5-methyl-(6R,S)-tetrahydrofolate]	–	–
98.9	55.0	99.0	54.8	99.1	55.2	CN1c2c(nc(N)[nH]c2=O)NCC1CNc1ccc(C(=O)N[C@@H](CCC(=O)O)C(=O)O)cc1 (stereo partly drawn) [D-GLU 5-MTHF, D-glucosamine 5-methyl-(6R,S)-tetrahydrofolate]	–	–
99.0	55.4	98.5	55.1	99.3	55.7	CN1c2c(nc(N)[nH]c2=O)NCC1CNc1ccc(C(=O)NC(CCC(=O)O)C(=O)O)cc1 [D-GLU (6S)-5-MTHF, D-glucosamine 5-methyl-(6S)-tetrahydrofolate]	–	–
98.8	54.3	98.7	54.0	99.1	54.6	Nc1nc2ncc(CNc3ccc(C(=O)N[C@@H](CCC(=O)O)C(=O)O)cc3)nc2c(=O)[nH]1 [D-GLU folate, D-glucosamine L-folate]	–	–
